The target of this experiment is T1, human PRMT6 (Homo sapiens, UniProt Q96LA8).
T1 construct: Flag-PRMT6-His; made in house; host or cells: HEK 293F cells (BacMam virus, pFastBacMam)
In words: PRMT6 Biochemical Assay. As to conditions: peptide substrate, 3H-SAM Flashplate assay. The source says: S-adenosylmethionine (SAM), S-adenosylhomocysteine (SAH), bicine, Tween20, dimethylsulfoxide (DMSO), bovine skin gelatin (BSG), sodium butyrate and Tris(2-carboxyethyl)phosphine hydrochloride solution (TCEP) were purchased from Sigma-Aldrich at the highest level of purity possible. ^3H-SAM was purchase from American Radiolabeled Chemicals with a specific activity of 80 Ci/mmol. 384-well streptavidin Flashplates were purchased from PerkinElmer.
Peptide representative of human histone H4 residues 36-50 was synthesized with an N-terminal linker-affinity tag motif and a C-terminal amide cap by 21st Century Biochemicals. The peptide was purified by high-performance liquid chromatography (HPLC) to greater than 95% purity and confirmed by liquid chromatography mass spectrometry (LC-MS). The sequence was Biot-Ahx-[…]-amide and contained a monomethylated lysine at position 44 (SEQ ID NO.:5).
Full-length human PRMT6 (NM_018137.2) transcript clone was amplified from an HEK 293 cDNA library, incorporating a flanking 5′ sequence encoding a FLAG tag ([…]) (SEQ ID NO.:6) fused directly to Ser 2 of PRMT6 and a 3′ sequence encoding a hexa His sequence (HHHHHH) fused directly to Asp 375. The amplified gene was subcloned into pFastBacMam (Viva Biotech).
Recombinant baculovirus were generated according to Bac-to-Bac kit instructions (Life Technologies). […] Infections were carried out at 37° C. for 48 hours, harvested by centrifugation, and stored at −80° C. for purification.
Column was washed with 20 mM imidazole in the same buffer and Flag-PRMT6-His was eluted with 150 mM imidazole. Pooled fractions were dialysed against buffer Ni-A and further purified by anti-flag M2 affinity chromatography. Flag-PRMT6-His was eluted with 200 ug/ml FLAG peptide in the same buffer. Pooled fractions were dialysed in 20 mM Tris, 150 mM NaCl, 10% glycerol and 5 mM β-mercaptoethanol, pH 7.8. The purity of recovered protein was 95%.
General Procedure for PRMT6 Enzyme Assays on Peptide Substrates.
The assays were all performed in a buffer consisting of 20 mM Bicine (pH=7.6), 1 mM TCEP, 0.005% BSG, and 0.002% Tween 20, prepared on the day of use. Compounds in 100% DMSO (1 ul) were spotted into a polypropylene 384-well V-bottom plates (Greiner) using a Platemate Plus outfitted with a 384-channel head (Thermo Scientific). DMSO (1 ul) was added to Columns 11, 12, 23, 24, rows A-H for the maximum signal control and 1 ul of SAH, a known product and inhibitor of PRMT6, was added to columns 11, 12, 23, 24, rows I-P for the minimum signal control. A cocktail (40 ul) containing the PRMT6 enzyme was added by Multidrop Combi (Thermo-Fisher). The compounds were allowed to incubate with PRMT6 for 30 min at room temperature, then a cocktail (10 ul) containing SAM and peptide was added to initiate the reaction (final volume=51 ul). The final concentrations of the components were as follows: PRMT6 was 1 nM, ^3H-SAM was 200 nM, non-radiolabeled SAM was 250 nM, peptide was 75 nM, SAH in the minimum signal control wells was 1 mM, and the DMSO concentration was 2%. The assays were stopped by the addition of non-radiolabeled SAM (10 ul) to a final concentration of 400 uM, which dilutes the ^3H-SAM to a level where its incorporation into the peptide substrate is no longer detectable. 50 ul of the reaction in the 384-well polypropylene plate was then transferred to a 384-well Flashplate and the biotinylated peptides were allowed to bind to the streptavidin surface for at least 1 hour before being washed once with 0.1% Tween20 in a Biotek ELx405 plate washer. The plates were then read in a PerkinElmer TopCount plate reader to measure the quantity of ^3H-labeled peptide bound to the Flashplate surface, measured as disintegrations per minute (dpm) or alternatively, referred to as counts per minute (cpm).
Where dpm=disintegrations per minute, cmpd=signal in assay well, and min and max are the respective minimum and maximum signal controls. […]

This passage reports IC50 results from patent US9440950B2, “Arginine methyltransferase inhibitors and uses thereof” (Epizyme, Inc., priority 2013, dated 2016).

One may read the IC50 as the point on the concentration scale where inhibition reaches its midpoint. A high value points to lower potency.

T1 sequence (Q96LA8 with tags, fused parts or gaps): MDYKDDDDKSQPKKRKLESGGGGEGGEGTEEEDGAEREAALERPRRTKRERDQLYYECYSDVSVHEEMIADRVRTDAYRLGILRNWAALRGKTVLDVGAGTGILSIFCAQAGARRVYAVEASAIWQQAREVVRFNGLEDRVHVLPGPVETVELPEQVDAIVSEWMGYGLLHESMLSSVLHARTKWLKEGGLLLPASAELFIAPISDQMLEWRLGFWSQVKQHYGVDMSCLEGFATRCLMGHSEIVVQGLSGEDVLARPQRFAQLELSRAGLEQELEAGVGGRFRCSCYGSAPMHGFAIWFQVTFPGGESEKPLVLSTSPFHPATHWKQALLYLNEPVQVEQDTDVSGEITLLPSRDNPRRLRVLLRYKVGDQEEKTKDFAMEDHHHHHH

As for `COc1ncccc1-c1n[nH]cc1CN(C)CCN` [Compound 15], the IC50 lay in the range of 101 to 1000 nM.

Compound `CN(CCN)Cc1c[nH]nc1-c1cncc(S(C)(=O)=O)c1` [Compound 4] came in with an IC50 of 1010 to 3000 nM.

The compound `COc1cc(-c2n[nH]cc2CN(C)CCN)ccn1` [Compound 11] showed an IC50 of at most 100 nM.

In the case of `Cc1cncc(-c2n[nH]cc2CN(C)CCN)c1` [Compound 6], the IC50 lay in the range of 3010 to 10000 nM.

Compound `CCN(CC(C)C)c1ccc(-c2n[nH]cc2CN(C)CCNC)cn1` [Compound 36] showed an IC50 of 1010 to 3000 nM.

Compound `CNCCN(C)Cc1c[nH]nc1-c1ccc(N(CC(C)C)CC(C)C)nc1` [Compound 31] displayed a 50% inhibitory concentration (IC50) of 1010 to 3000 nM.

As to `CN(CCN)Cc1c[nH]nc1-c1cnccc1C(F)(F)F` [Compound 29], the 50% inhibitory concentration (IC50) fell in the range of 101 to 1000 nM.

Compound `COc1ccncc1-c1n[nH]cc1CN(C)CCN` [Compound 16] had an IC50 of 101 to 1000 nM.

On to `CN(CCN)Cc1c[nH]nc1-c1ccccn1` [Compound 27], for which the IC50 was 3010 to 10000 nM.

Compound `CN(CCN)Cc1c[nH]nc1-c1cncc(C#N)c1` [Compound 18] had a half-inhibitory concentration (IC50) of 101 to 1000 nM.

Compound `CN(CCN)Cc1c[nH]nc1-c1cncc(F)c1` [Compound 7] displayed an IC50 of at most 100 nM.

`COc1ncc(Cl)cc1-c1n[nH]cc1CN(C)CCN` [Compound 14] gave an IC50 of 1010 to 3000 nM.

As for `CC(C)Oc1ccc(-c2n[nH]cc2CN(C)CCN)cn1` [Compound 22], the IC50 is at most 100 nM.

`CNCCN(C)Cc1c[nH]nc1-c1ccc(N(C)CCC(C)C)nc1` [Compound 30] yielded an IC50 of at most 100 nM.

As to `CN(CCN)Cc1c[nH]nc1-c1ccc(C(F)(F)F)nc1` [Compound 13, N^1-methyl-N^1-((3-(6-(trifluoromethyl)pyridin-3-yl)-1H-pyrazol-4-yl)methyl)ethane-1,2-diamine], the IC50 is at most 100 nM.

`Cc1cc(-c2n[nH]cc2CN(C)CCN)cnc1Cl` [Compound 10] had an IC50 of at most 100 nM.

In turn, `Cc1ccncc1-c1n[nH]cc1CN(C)CCN` [Compound 17] registered an IC50 of 101 to 1000 nM.

In turn, `CC(C)CNc1ccc(-c2n[nH]cc2CN(C)CCN)cn1` [Compound 26] yielded an IC50 of at most 100 nM.

Consider `CN(CCN)Cc1c[nH]nc1-c1ccc(N2CCOCC2)nc1` [Compound 20], for which the 50% inhibitory concentration (IC50) lay within 101 to 1000 nM.

`CN(CCN)Cc1c[nH]nc1-c1cncc(Cl)c1` [Compound 19] displayed an IC50 of at most 100 nM.

Turning to `CN(CCN)Cc1c[nH]nc1-c1ccc(NCc2ccccc2)nc1` [Compound 25], the IC50 is at most 100 nM.

The compound `COc1ccc(-c2n[nH]cc2CN(C)CCN)cn1` [Compound 5] came in with a concentration for half-maximal inhibition (IC50) of at most 100 nM.

In turn, `CNCCN(C)Cc1c[nH]nc1-c1ccc(N(C)CC(C)C)nc1` [Compound 32, N^1-((3-(6-(isobutyl(methyl)amino)pyridin-3-yl)-1H-pyrazol-4-yl)methyl)-N^1,N^2-dimethylethane-1,2-diamine] had an IC50 of 101 to 1000 nM.

Turning to `CNCCN(C)Cc1c[nH]nc1-c1cccnc1` [Compound 1], the IC50 was at most 100 nM.

For `CNCCN(C)Cc1c[nH]nc1-c1ccc(N)nc1` [Compound 3], the IC50 was at most 100 nM.

Compound `CN(CCN)Cc1c[nH]nc1-c1cccnc1` [Compound 8] came in with an IC50 of at most 100 nM.

In turn, `COc1cc(-c2n[nH]cc2CN(C)CCN)c(Cl)cn1` [Compound 12] yielded an IC50 of 101 to 1000 nM.

Take `CN(CCN)Cc1c[nH]nc1-c1ccc(C#N)nc1` [Compound 28, 5-(4-(((2-aminoethyl)(methyl)amino)methyl)-1H-pyrazol-3-yl)picolinonitrile]: the half-maximal inhibitory concentration (IC50) was at most 100 nM.

For `CNCCN(C)Cc1c[nH]nc1-c1ccc(O)nc1` [Compound 2], the concentration for half-maximal inhibition (IC50) fell in the range of 1010 to 3000 nM.

For `CN(CCN)Cc1c[nH]nc1-c1ccncc1` [Compound 9], the IC50 is at most 100 nM.

Compound `CC(C)CN(C)c1ccc(-c2n[nH]cc2CN(C)CCN)cn1` [Compound 21] displayed an IC50 of 101 to 1000 nM.

`CN(CCN)Cc1c[nH]nc1-c1ccc(N(C)Cc2ccccc2)nc1` [Compound 23]: the IC50 is at most 100 nM.

As to `CCN(CCC(C)C)c1ccc(-c2n[nH]cc2CN(C)CCNC)cn1` [Compound 34, N^1-((3-(6-(ethyl(isopentyl)amino)pyridin-3-yl)-1H-pyrazol-4-yl)methyl)-N^1,N^2-dimethylethane-1,2-diamine], the half-inhibitory concentration (IC50) was 101 to 1000 nM.

`CNCCN(C)Cc1c[nH]nc1-c1ccc(N(C)C(C)C)nc1` [Compound 33, N^1-((3-(6-(isopropyl(methyl)amino)pyridin-3-yl)-1H-pyrazol-4-yl)methyl)-N^1,N^2-dimethylethane-1,2-diamine] gave an IC50 of 101 to 1000 nM.

As for `CCN(CC)c1ccc(-c2n[nH]cc2CN(C)CCN)cn1` [Compound 24], the IC50 was 101 to 1000 nM.

Consider `CNCCN(C)Cc1c[nH]nc1-c1ccc(OCC(C)C)nc1` [Compound 35, N^1-((3-(6-iso-butoxypyridin-3-yl)-1H-pyrazol-4-yl)methyl)-N^1,N^2-dimethylethane-1,2-diamine], for which the IC50 was at most 100 nM.
